Laboratory results: US12049519B2, “Peptide for the delivery of anionic materials” (The Queen's University of Belfast, priority 2019, dated 2024)
Residues, ends and D or L forms follow the SMILES beside them.

How the values were obtained:
[1] = system: breast and prostate cancer cell lines; test: Cell viability, MTS assay; assay type: cell-based; details: even at a high N:P ratio of 20
Procedure: (§1) FIG. 11: Cell viability of A) MCF-7 and MDA-MB-231 breast cancer cells, B) DU145 and PC-3 prostate cancer cells, and C) NCTC-929 fibroblast, HMEC-1 endothelial, and HaCaT keratinocyte cells following transfection with Peptide 10. Cells were transfected with Peptide 10 at a range of N:P ratios for 4 h before replacement with complete medium. After 24 h, cells were treated with MTS reagent for 2 h in dark conditions. A Bio-Tek Powerwave XS plate reader was then used to read absorbance at 490 nm with Gen5 software and any background absorbance was subtracted from readings. Untreated cells were considered to be 100% viable and viability under all conditions was calculated relative to this.
(§2) Cell viability was evaluated by MTS assay with CellTiter 96 AQueous One Solution Cell Proliferation Assay (Promega, UK). MDA-MB-231 and PC-3 cells were seeded at a density of 1.5×10^4 cells per well and MCF-7, and DU145cells seeded at 1.2×10^4 cells per well, ARPE, NCTC-929, HMEC-1, and HaCaT cells seeded at 1.0×10^4, and allowed to adhere in a 96 well plate. Cells were transfected CellTiter reagent was added to each well 24 h post transfection to give a final volume of 10% and returned to the incubator for 2 h. Absorbance was read at 490 nm using a Bio-Tek Powerwave XS plate reader with Gen5 software and any background absorbance was subtracted from readings. Cell viability was expressed as a percentage of the untreated control where the untreated control is considered to be 100% viable.

HMEC-1 endothelial cells = test: Cell viability, MTS assay; assay type: cell-based; details: irrespective of the N:P ratio
Procedure: as §1, §2

[2] = system: NCTC-929 fibroblast cells; test: Cell viability, MTS assay; assay type: cell-based; details: N:P ratios of 15 and 20
Procedure: as §1, §2

HaCaT keratinocyte cells = test: Cell viability, MTS assay; assay type: cell-based; details: N:P ratios of 15 and 20
Procedure: as §1, §2

[3] = Cell viability, MTS assay (FIGS. 11 and 12B); assay type: cell-based; details: N:P ratio of 6 to 15; 24 h post transfection; relative to untreated cells
Procedure: as §1
FIG. 12: Transfection efficiency and cell viability of nanoparticles comprising pEGFP-N1 and Peptide 10 assessed in ARPE human retinal cells. (A) Cells were transfected for 4 h with Peptide 10/pEGFP-N1 nanoparticles at a range of N:P ratios. Following transfection, medium was replaced with culture medium supplemented with 10% serum and incubated for 48 h before imaging using i) light and ii) fluorescence microscopy. Scale bar=400 μm. iii) Quantification of transfection efficiency was subsequently analysed by flow cytometry at 4% gating. […] A Bio-Tek Powerwave XS plate reader was then used to read absorbance at 490 nm with Gen5 software and any background absorbance was subtracted from readings. […]

pEGFP-N1 = test: DNA complexation efficiency assay, Quant-iT PicoGreen; assay type: binding
Procedure: FIG. 2: DNA complexation efficiency assay using Quant-iT™ PicoGreen® reagent indicating the efficiency of A) Peptide 7, B) Peptide 8, C) Peptide 9, D) Peptide 10, E) Peptide 11 and F) Peptide 12 to complex 0.5 μg pEGFP-N1 (Accession Number: U55762.1) (a pDNA) at a range of N:P ratios. Peptide/pEGFP-N1 complexes were prepared at a range of N:P ratios from 1 to 20. 50 μl samples of each N:P ratio was pipetted into a 96-well plate with Quant-iT™ PicoGreen® reagent. Sample fluorescence was then analysed by excitation at 480 nm and the fluorescence emission intensity measured at 520 nm using a Synergy 2 Multi-Mode Microplate Reader. Fluorescence was then calculated as a percentage of the control and converted to the percentage DNA complexed.
Peptide complexes and composite complexes were prepared at a range of N:P ratios from 1 to 20 to complex 0.5 μg pEGFP-N1. Quant-iT™ PicoGreen® Reagent (Life Technologies, UK) was diluted 1:200 in TAE buffer and 50 μl was added to each 50 μl sample. Sample fluorescence was analysed by excitation at 480 nm and the fluorescence emission intensity measured at 520 nm using a Synergy 2 Multi-Mode Plate Reader. Fluorescence intensity of a naked pDNA control (an N:P ratio of 0) was taken as 100% fluorescence and 0% complexed, and any fluorescence detected from samples was taken to be un-complexed. […]

[4] = system: MDA-MB-231 breast cancer cells; test: Endosomal escape study: transfection with and without chloroquine; assay type: cell-based; details: N:P 10, with and without 10 μM chloroquine, cell line not given
Procedure: (§3) FIG. 6: Transfection efficiency of nanoparticles comprising pEGFP-N1 and Peptides 7 to 12 assessed in A) MCF-7 and B) MDA-MB-231 breast cancer cells with and without chloroquine, a reagent known to facilitate endosomal escape. Cells were transfected for 4 h with peptide/pEGFP-N1 nanoparticles at N:P 10. 10 μM chloroquine was added to cells in appropriate wells along with the nanoparticles. Following transfection, medium was replaced with DMEM supplemented with 10% FCS and incubated for 48 h before quantification of transfection efficiency by flow cytometry at 4% gating. […] Statistical analysis was carried out using an unpaired t test (*=P<0.05, ** =P<0.01, ***=P<0.001)
(§4) In some instances, cells were treated with chloroquine (a reagent known to facilitate endosomal escape) (FIG. 6). For endosomal escape studies, 1 mM chloroquine (Sigma-Aldrich, UK) was added to the cells immediately before transfection, giving a final concentration of 10 μM chloroquine in the nanoparticle transfection mix.

[5] = system: MCF-7 breast cancer cells; test: as above; assay type: cell-based; details: N:P 10, with and without 10 μM chloroquine, cell line not given
Procedure: as §3, §4

[6] = system: MDA-MB-231 breast cancer cells; test: Transfection with peptide/pEGFP-N1 nanoparticles, flow cytometry; assay type: cell-based; details: N:P ratios of 6 to 10
Procedure: (§5) FIG. 5: Transfection efficiency of nanoparticles comprising pEGFP-N1 and A) Peptide 7, B) Peptide 8, C) Peptide 9, D) Peptide 10, E) Peptide 11 and F) Peptide 12 assessed in MCF-7 and
(§6) MDA-MB-231 breast cancer cells. Cells were transfected for 4 h with peptide/pEGFP-N1 nanoparticles at a range of N:P ratios. Following transfection, medium was replaced with DMEM supplemented with 10% FCS and incubated for 48 h before quantification of transfection efficiency by flow cytometry at 4% gating.
(§7) In order to assess the ability of peptide and composite nanoparticles to transfect cells, transfections were carried out in 96-well tissue culture plates.
(§8) MCF-7 and MDA-MB-231 breast cancer cells were seeded at a density of 2.25×10^4 and 2.5×10^4 cells per well respectively, and allowed to adhere overnight at 37° C. with 5% CO2 (FIG. 5).
(§9) Medium was replaced with OptiMEM (Invitrogen, UK) 2 h prior to transfection and the cells returned to the incubator at 37° C. with 5% CO2. […]
(§10) Transfected cells were washed with phosphate buffered saline (PBS) and 2× trypsin used to detach cells at 37° C. in 5% CO2 atmosphere. […] A FACScalibur system (BD Bioscience, UK) or Accuri C6 Plus (BD Bioscience, UK) were used for the detection of green fluorescent protein (GFP) expressing cells at 4% gating (to reduce interference of auto-fluorescence) and results are reported as mean±SEM, n=3.

[7] = system: MCF-7 breast cancer cells; test: as above; assay type: cell-based; details: N:P ratios of 6 to 10
Procedure: as §5, §6, §7, §8, §9, §10

[8] = Nanoparticle hydrodynamic size, Malvern Zetasizer (DLS); assay type: physicochemical; details: low N:P ratios
Procedure: FIG. 3: Mean hydrodynamic size and zeta potential of nanoparticles prepared with pEGFP-N1 and A) Peptide 7, B) Peptide 8, C) Peptide 9, D) Peptide 10, E) Peptide 11 or F) Peptide 12 at a range of N:P ratios. For example, at an N:P ratio of 10 with Peptide 7, nanoparticles comprise 0.5 μg of pEGFP-N1 and 5.7 μg Peptide 7. Nanoparticles were made up to 50 μl with molecular grade water and incubated for 30 min at room temperature before hydrodynamic size and zeta potential were measured using a Malvern Zetasizer Nano ZS instrument.
Peptide complexes (an N:P ratio of 0) and composite complexes were prepared at a range of N:P ratios from 1 to 20 to complex 0.5 μg pEGFP-N1. For example, at an N:P ratio of 10 with Peptide 7, nanoparticles comprise 0.5 μg of pEGFP-N1 and 5.7 μg Peptide 7. Nanoparticles were made up to 50 μl with molecular grade water and incubated for 30 min at room temperature before a Malvern Zetasizer Nano ZS instrument with DTS software (Malvern Instruments, UK) was used to measure the mean hydrodynamic particle size of nanoparticles. A 40 μl disposable microcuvette was used to measure the mean size by number of nanoparticles formed by Dynamic Light Scattering (DLS) at 20° C. Results were reported as mean±SEM, and all measurements were performed in triplicate.

Row | Compound | toxicity (cell viability studies) [1] | cytotoxic effects (cell viability studies) (HMEC-1 endothelial cells) | toxicity (cell viability studies) [2] | toxicity (cell viability studies) (HaCaT keratinocyte cells) | viability at 24 h [3] | maximum complexation efficiency (pEGFP-N1) | transfection regardless of chloroquine [4] | transfection regardless of chloroquine [5] | % transfection [6] | % transfection [7] | particle size as a function of N:P ratio [8]
1 | N=C(N)NCCC[C@H](NC(=O)[C@H](CCCNC(=N)N)NC(=O)[C@H](CCCNC(=N)N)NC(=O)[C@H](Cc1c[nH]c2ccccc12)NC(=O)[C@H](CCCNC(=N)N)NC(=O)[C@H](CCCNC(=N)N)NC(=O)[C@H](CCCNC(=N)N)NC(=O)[C@H](Cc1c[nH]cn1)NC(=O)[C@H](Cc1c[nH]cn1)NC(=O)[C@H](Cc1c[nH]cn1)NC(=O)[C@@H](N)CS)C(=O)N[C@@H](Cc1c[nH]cn1)C(=O)N[C@@H](Cc1c[nH]cn1)C(=O)N[C@@H](Cc1c[nH]cn1)C(=O)N[C@@H](CS)C(=O)O [Peptide 10, CHHHRRRWRRRHHHC] (H-CHHHRRRWRRRHHHC-OH) | weak toxicity, if any | no cytotoxic effects | weak toxicity | weak toxicity | > 60% | – | – | – | – | – | –
2 | CEHHRRRWRRRHHEC [Peptide 12, comparative linear peptide, outside the scope of the invention] | – | – | – | – | – | 70% | Very low | Very low | > 10% | > 10% | –
3 | CRRRRWRRRRC [Peptide 11, comparative linear peptide, outside the scope of the invention] | – | – | – | – | – | – | Very low | Very low | – | – | large particles form at lower N:P ratios
